This is an account of results in ChEMBL document CHEMBL1201862, “PubChem BioAssay data set” (2004).

Test in all cases: NCI-60 cell line screen, 48 h
The subject of assay [1] is SNB-19.
Assay [2] relates to RPMI-8226.
Assay [3] deals with K562.
For assay [4], the system named is 786-0.
The subject of assay [5] is CCRF-CEM.
Assay [6] has as its system SF-268.
The test system of assay [7] is MCF7.
Assay [8] deals with MDA-N.
The test system of assay [9] is HCT-15.
Assay [10] concerns OVCAR-5.
The test system of assay [11] is LOX IMVI.
Assay [12] relates to UACC-62.
For assay [13], the system named is EKVX.
For assay [14], the system named is U-251.
Assay [15] relates to MOLT-4.
Assay [16] concerns NCI/ADR-RES.
Assay [17] has as its system CAKI-1.
Assay [18] concerns SK-MEL-2.
In assay [19] the test system is BT-549.

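Protocol summary: plate cells (96-well), add compound at 5 concentrations, incubate 48 h, interpolate endpoints linearly. The concentration for 50% growth inhibition is given as GI50.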 Calls of active or inactive are those of the source. Cut-off read from the data, not from the text of the source: active = GI50 up to about 1.1 µM and inactive = higher.

For the compound `Cc1c(C#N)c(N)n(C2OC(CO)C(O)C(O)C2O)c(=S)c1C#N` (configuration not stated), the GI50 in assay [1], in assay [2], in assay [3], in [4], in [5] and in assay [6] was > 100 µM (inactive) throughout. Besides, the GI50 is > 100 µM (inactive) in [7]; > 100 µM (inactive) in assay [8]; greater than 100 µM in [9]; > 100 µM (inactive) in assay [10]; > 100 µM (inactive) in [11]; > 100 µM (inactive) in [12]. Moreover, the GI50 in [13], in [14] and in assay [15] was > 100 µM (inactive) each time.
On to `CC(C)(C)OC(=O)N(CCCCN(CCCNC(=O)C(F)(F)F)C(=O)OC(C)(C)C)CCCNC(=O)C(F)(F)F`, for which the GI50 in [1] was > 100 µM (inactive); in assay [2], 37.7 µM (inactive); in assay [3], 98.9 µM (inactive); in assay [16], 91.2 µM (inactive); in assay [4], > 100 µM (inactive); in [5], > 100 µM (inactive). For the same compound, the GI50 is > 100 µM (inactive) in assay [6]; > 100 µM (inactive) in assay [7]; 47.1 µM (inactive) in assay [17]; greater than 100 µM in [9]; > 100 µM (inactive) in assay [18]; > 100 µM (inactive) in [10]. Also, the GI50 in assay [11] is > 100 µM (inactive); in [12], > 100 µM (inactive); in assay [13] it was > 100 µM (inactive); in [14], > 100 µM (inactive); in assay [19], > 100 µM (inactive); in [15] it was 71.9 µM (inactive).
Regarding `CCOC(=O)CCc1c(C(=O)OCC)[nH]c(/C=C2\NC(=O)C(C)=C2CC)c1C`, the GI50 in [2] is > 100 µM (inactive); in [3], > 100 µM (inactive); in assay [16], 12.9 µM (inactive); in assay [4], 14.5 µM (inactive); in [5], > 100 µM (inactive); in assay [6], 26.9 µM (inactive). For the same compound, the GI50 in assay [7] was 41 µM (inactive); in assay [17] it was 24.3 µM (inactive); in assay [9], 26.1 µM; in assay [18], 18.1 µM (inactive); in assay [10], 25.6 µM (inactive); in assay [11], 22.5 µM (inactive). Further, the GI50 was 19.2 µM (inactive) in assay [12], 22.2 µM (inactive) in assay [13], 15.3 µM (inactive) in [14] and > 100 µM (inactive) in assay [15].
In the case of `Cc1ccc(S(=O)(=O)c2c(N)n(CCN(C)C)c3nc4ccccc4nc23)cc1`, the GI50 in [1] is > 100 µM (inactive); in assay [2], > 100 µM (inactive); in [3], > 100 µM (inactive); in assay [4], > 100 µM (inactive); in assay [5] it was 96.6 µM (inactive); in assay [6] it was > 100 µM (inactive). In addition, the GI50 in [9] was greater than 100 µM; in assay [18], > 100 µM (inactive); in assay [10] it was > 100 µM (inactive); in assay [13], > 100 µM (inactive); in [14], > 100 µM (inactive); in assay [15] it was > 100 µM (inactive).
As for `COC1(OC)CCCc2c1no[n+]2[O-]`, the GI50 in assay [1], in assay [2], in [3], in [16], in assay [4] and in assay [5] was > 100 µM (inactive) in each case. The GI50 in [6] is > 100 µM (inactive); in [7], > 100 µM (inactive); in [8], > 100 µM (inactive); in assay [17] it was > 100 µM (inactive); in [9], greater than 100 µM; in [18], > 100 µM (inactive). In addition, the GI50 in assay [10], in [11], in [12], in assay [13], in assay [14] and in assay [15] was > 100 µM (inactive) throughout.
Take `COC(=O)/C=C/c1cc(O)c2c(c1)[C@H](C(=O)OC)[C@@H](c1ccc(O)c(O)c1)O2`: the GI50 is 0.0386 µM (active) in assay [1]; 0.0618 µM (active) in [2]; 0.0306 µM (active) in assay [3]; 0.158 µM (active) in [16]; 0.152 µM (active) in assay [4]; 0.0381 µM (active) in assay [5]. Moreover, the GI50 was 0.635 µM (active) in assay [6]; 0.108 µM (active) in [7]; 0.0122 µM (active) in [8]; 0.544 µM (active) in assay [17]; 0.0451 µM in assay [9]; 0.0783 µM (active) in assay [18]. The GI50 in assay [10] was 35.7 µM (inactive); in assay [11] it was 0.0757 µM (active); in assay [12] it was 0.0865 µM (active); in [13], 8.67 µM (inactive); in assay [14], 0.0664 µM (active); in assay [15], 0.0753 µM (active).
As to `c1cnc2c(c1)-n1cccc1C1(CCCCC1)NN2`, the GI50 in assay [1] was > 100 µM (inactive); in assay [2], 47.9 µM (inactive); in assay [3] it was 45.1 µM (inactive); in [4] it was > 100 µM (inactive); in assay [5] it was 41.5 µM (inactive); in [6], > 100 µM (inactive). Moreover, the GI50 in [17] is 60 µM (inactive); in [9] it was 37.4 µM; in assay [18] it was > 100 µM (inactive); in [10], > 100 µM (inactive); in [11] it was 50 µM (inactive); in assay [13] it was 82.2 µM (inactive). In assay [15], the GI50 was 24.5 µM (inactive).
For `CCc1ccc2c(c1)CC1(C2)Cc2cc3c(cc2C1)C(=O)CC3` (configuration not stated), the GI50 was 18.5 µM (inactive) in [2]; 3.85 µM (inactive) in assay [3]; 40.5 µM (inactive) in assay [16]; 25.6 µM (inactive) in assay [4]; 2.94 µM (inactive) in assay [5]; 5.08 µM (inactive) in [7]. Moreover, the GI50 in assay [8] was 2.25 µM (inactive); in assay [9] it was 23.9 µM; in assay [18] it was 4.26 µM (inactive); in assay [10] it was 27.5 µM (inactive); in [11], 15.4 µM (inactive); in assay [12] it was > 100 µM (inactive). Besides, the GI50 in [13] is > 100 µM (inactive); in [14] it was 18.8 µM (inactive).
For `N#Cc1nc(NC(=O)c2ccccc2)sc1N`, the GI50 in assay [1] is > 10 µM (inactive); in assay [2], 9.82 µM (inactive); in [3] it was > 10 µM (inactive); in assay [16], > 9.48 µM (inactive); in assay [4], > 10 µM (inactive); in assay [5] it was 4.54 µM (inactive). The GI50 is > 10 µM (inactive) in assay [6]; > 2.22 µM (inactive) in assay [7]; > 10 µM (inactive) in [8]; > 10 µM (inactive) in assay [17]; greater than 10 µM in [9]; > 10 µM (inactive) in [18]. In addition, the GI50 in [10] was > 10 µM (inactive); in assay [11], > 10 µM (inactive); in assay [12], > 10 µM (inactive); in assay [13], > 10 µM (inactive); in assay [14], > 10 µM (inactive); in assay [15], 3.27 µM (inactive).
Take `O=C1CC(c2cccc(Cl)c2)n2cccc21` (configuration not stated): the GI50 is > 100 µM (inactive) in assay [1]; > 100 µM (inactive) in assay [2]; 61.4 µM (inactive) in assay [3]; > 100 µM (inactive) in [16]; > 100 µM (inactive) in [4]; > 100 µM (inactive) in [5]. Also, the GI50 in assay [6] is 74.6 µM (inactive); in assay [7], > 100 µM (inactive); in assay [17], 54.6 µM (inactive); in assay [9], greater than 100 µM; in [18] it was 37.8 µM (inactive); in assay [10] it was > 100 µM (inactive). The GI50 in assay [11] is > 100 µM (inactive); in assay [12], > 100 µM (inactive); in assay [14], > 100 µM (inactive); in assay [15] it was 70 µM (inactive).
`CCCCCC(C/C=N/N(C)C)C(O)(C(F)(F)F)C(F)(F)F` (configuration not stated): the GI50 in assay [1] is 37 µM (inactive); in assay [2] it was 11.3 µM (inactive); in [3] it was 22.5 µM (inactive); in assay [16] it was > 100 µM (inactive); in [4], 35.9 µM (inactive); in [5] it was 17.1 µM (inactive). The GI50 is 36.7 µM (inactive) in assay [6]; 38.4 µM (inactive) in [8]; 43.6 µM (inactive) in assay [17]; 49.8 µM in assay [9]; 25.9 µM (inactive) in assay [18]; 65.6 µM (inactive) in assay [10]. Further, the GI50 in assay [11] is 43.2 µM (inactive); in assay [12] it was 59.8 µM (inactive); in [13], 41.6 µM (inactive); in assay [14], 25.4 µM (inactive); in [15], 29.4 µM (inactive).
Consider `CCN(CC)CCN(/C(=N/c1ccccc1)N1CCOCC1)c1ccccc1`, for which the GI50 in assay [1], in assay [2], in assay [3], in assay [16], in assay [4] and in [5] was > 100 µM (inactive) in each case. In addition, the GI50 is > 100 µM (inactive) in [6]; 89.3 µM (inactive) in assay [7]; > 100 µM (inactive) in [17]; greater than 100 µM in assay [9]; > 100 µM (inactive) in assay [18]; 44.6 µM (inactive) in [11]. Also, the GI50 in assay [12], in [13], in assay [14], in [19] and in [15] was > 100 µM (inactive) in each case.
